Reference: patent US20110245192A1, “NEW ACTIVATORS FOR TREATING AND/OR PREVENTING DISEASES OR MEDICAL CONDITIONS WHICH BENEFIT FROM AN INCREASED TRANSPORT OF HYALURONAN ACROSS A LIPID BILAYER” (priority 2008, published 2011)

System: hyaluronan transport/export in fibroblasts
Experiment: Assay for hyaluronan transport/export activators in fibroblast cell culture (hyaluronan in culture medium by ELISA)
Format: cell-based
Conditions: 2 days at 37° C.
Experimental: Compound 89 activates 4,7fold, while compound 101 activates 2,4fold. The “activatory capability” as described herein is expressed as the ratio of hyaluronan exported in the presence and absence of the compound. Methods to determine the hyaluronan transport are disclosed herein, and are also disclosed in great detail in WO2005/013947.
Trypsinised fibroblasts were suspended in Dulbeccos medium at 10^5 cells/ml and 100 μl aliquots were transferred to a 96 well microtiter plate. The first row received 200 μl of the suspension and 20 μl of the activators of the invention dissolved in phosphate buffered saline at concentrations of 4 mM. A serial dilution of the activators was established by transfer of 100 μl aliquots from the first row to the following rows. All experiments were performed in duplicates. […] The cells were incubated for 2 days at 37° C. and aliquots (5 and 20 μl) of the culture medium were used for measurement of the hyaluronan concentration in the cell culture medium by an ELISA [125]. […] The adsorption was read at 490 nm. The concentrations in the samples were calculated from a logarithmic regression curve of the hyaluronan standard solutions. […]

Row | SMILES | activatory capability: ratio of hyaluronan exported in the presence and absence of the compound
1 | CC(=O)Nc1c(O)cccc1Oc1ccc(N)cc1C(=O)O [Compound 101] | 2,4 fold
2 | CC(=O)Nc1c(O)cc(O)cc1Oc1ccc(N)cc1C(=O)O [Compound 89] | 4,7 fold
